Data taken from PMC7486443, “Generation of Phenothiazine with Potent Anti-TLK1 Activity for Prostate Cancer Therapy” (iScience, 2020).

What was measured:
Assay in all cases: biochemical
Set-up in all cases: DiscoverX KINOMEscan scanMAX competition binding panel, single concentration, percent of control; remaining binding: dose or concentration left out as unconfirmed
Details in all cases: KINOMEscan binding, percent of control; read-out: Table S4_SCANMAX REPORT - related to Fig. 1 / Percent Control
CAMK1 = CAMK1 (Homo sapiens, UniProt Q14012)
CSNK2A1 = CSNK2A1 (Homo sapiens, UniProt P68400)
EGFR(S752-I759del) = EGFR(S752-I759del) (Homo sapiens, UniProt P00533, DEL752-759)
GRK2 = GRK2 (Homo sapiens, UniProt P25098)
GRK7 = GRK7 (Homo sapiens, UniProt Q8WTQ7)
HIPK4 = HIPK4 (Homo sapiens, UniProt Q8NE63)
KIT(V559D,V654A) = KIT(V559D,V654A) (Homo sapiens, UniProt P10721, V559D/V654A)
MEK5 = biological target: T1, MEK5 (Homo sapiens, UniProt Q13163)
T1 construct: gene MAP2K5

MLK3 = biological target: T2, MLK3 (Homo sapiens, UniProt Q16584)
T2 construct: gene MAP3K11

NDR1 = biological target: T3, NDR1 (Homo sapiens, UniProt Q15208)
T3 construct: gene STK38

NDR2 = biological target: T4, NDR2 (Homo sapiens, UniProt Q9Y2H1)
T4 construct: gene STK38L

PHKG1 = PHKG1 (Homo sapiens, UniProt Q16816)
PHKG2 = PHKG2 (Homo sapiens, UniProt P15735)
PIP5K1C = PIP5K1C (Homo sapiens, UniProt O60331)
RET(V804M) = RET(V804M) (Homo sapiens, UniProt P07949, V804M)
SYK = SYK (Homo sapiens, UniProt P43405)
YANK2 = biological target: T5, YANK2 (Homo sapiens, UniProt Q9NY57)
T5 construct: gene STK32B

YES = biological target: T6, YES (Homo sapiens, UniProt P07947)
T6 construct: gene YES1

Sequence of CAMK1 (Q14012 whole entry): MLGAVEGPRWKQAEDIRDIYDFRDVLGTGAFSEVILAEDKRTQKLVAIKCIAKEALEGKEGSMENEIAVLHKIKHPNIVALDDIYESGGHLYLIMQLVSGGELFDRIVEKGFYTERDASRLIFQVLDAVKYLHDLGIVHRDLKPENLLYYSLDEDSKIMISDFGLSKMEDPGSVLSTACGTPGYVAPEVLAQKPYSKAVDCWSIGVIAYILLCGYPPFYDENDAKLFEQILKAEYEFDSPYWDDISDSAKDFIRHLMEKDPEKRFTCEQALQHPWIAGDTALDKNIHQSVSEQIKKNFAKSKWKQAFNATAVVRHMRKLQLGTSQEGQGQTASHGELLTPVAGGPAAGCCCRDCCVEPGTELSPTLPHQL
Sequence of KIT(V559D,V654A) (P10721 whole entry V559D/V654A): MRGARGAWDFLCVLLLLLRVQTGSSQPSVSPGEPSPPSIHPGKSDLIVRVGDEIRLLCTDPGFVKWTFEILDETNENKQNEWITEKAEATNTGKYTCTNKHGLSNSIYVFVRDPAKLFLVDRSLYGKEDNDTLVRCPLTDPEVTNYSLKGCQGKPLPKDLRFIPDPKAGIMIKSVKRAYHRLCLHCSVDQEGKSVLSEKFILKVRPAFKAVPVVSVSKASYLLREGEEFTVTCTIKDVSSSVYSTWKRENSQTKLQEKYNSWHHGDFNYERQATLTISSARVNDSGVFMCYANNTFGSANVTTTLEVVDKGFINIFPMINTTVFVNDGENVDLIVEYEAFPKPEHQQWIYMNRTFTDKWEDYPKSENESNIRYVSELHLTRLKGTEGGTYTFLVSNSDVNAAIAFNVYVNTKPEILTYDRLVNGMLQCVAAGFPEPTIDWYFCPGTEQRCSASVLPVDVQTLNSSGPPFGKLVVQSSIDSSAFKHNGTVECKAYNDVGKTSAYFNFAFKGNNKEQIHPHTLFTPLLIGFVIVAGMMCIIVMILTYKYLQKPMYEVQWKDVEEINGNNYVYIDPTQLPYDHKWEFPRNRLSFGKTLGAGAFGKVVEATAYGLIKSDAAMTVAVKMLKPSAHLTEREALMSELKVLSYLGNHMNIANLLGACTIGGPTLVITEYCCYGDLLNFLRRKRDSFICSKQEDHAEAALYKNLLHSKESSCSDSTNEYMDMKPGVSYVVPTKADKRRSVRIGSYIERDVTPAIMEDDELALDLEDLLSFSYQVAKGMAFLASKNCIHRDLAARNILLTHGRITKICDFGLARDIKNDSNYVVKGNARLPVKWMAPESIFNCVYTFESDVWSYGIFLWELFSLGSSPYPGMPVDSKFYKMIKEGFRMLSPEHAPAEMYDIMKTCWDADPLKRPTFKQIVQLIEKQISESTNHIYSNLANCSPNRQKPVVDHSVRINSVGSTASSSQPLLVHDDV
T1 sequence (Q13163 whole entry): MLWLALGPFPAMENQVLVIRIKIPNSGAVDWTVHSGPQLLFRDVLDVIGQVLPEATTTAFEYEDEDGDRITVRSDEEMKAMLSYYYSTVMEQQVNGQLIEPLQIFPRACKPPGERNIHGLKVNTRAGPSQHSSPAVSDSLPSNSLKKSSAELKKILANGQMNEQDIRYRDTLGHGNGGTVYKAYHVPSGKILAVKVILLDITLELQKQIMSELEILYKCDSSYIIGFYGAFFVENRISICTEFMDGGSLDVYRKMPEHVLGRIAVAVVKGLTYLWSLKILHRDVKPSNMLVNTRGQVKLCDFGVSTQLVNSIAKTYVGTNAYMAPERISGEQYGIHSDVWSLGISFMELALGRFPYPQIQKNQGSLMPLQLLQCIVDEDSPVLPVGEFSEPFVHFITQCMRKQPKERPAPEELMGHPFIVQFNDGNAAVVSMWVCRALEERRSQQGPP
Sequence of EGFR(S752-I759del) (P00533 with tags, fused parts or gaps DEL752-759): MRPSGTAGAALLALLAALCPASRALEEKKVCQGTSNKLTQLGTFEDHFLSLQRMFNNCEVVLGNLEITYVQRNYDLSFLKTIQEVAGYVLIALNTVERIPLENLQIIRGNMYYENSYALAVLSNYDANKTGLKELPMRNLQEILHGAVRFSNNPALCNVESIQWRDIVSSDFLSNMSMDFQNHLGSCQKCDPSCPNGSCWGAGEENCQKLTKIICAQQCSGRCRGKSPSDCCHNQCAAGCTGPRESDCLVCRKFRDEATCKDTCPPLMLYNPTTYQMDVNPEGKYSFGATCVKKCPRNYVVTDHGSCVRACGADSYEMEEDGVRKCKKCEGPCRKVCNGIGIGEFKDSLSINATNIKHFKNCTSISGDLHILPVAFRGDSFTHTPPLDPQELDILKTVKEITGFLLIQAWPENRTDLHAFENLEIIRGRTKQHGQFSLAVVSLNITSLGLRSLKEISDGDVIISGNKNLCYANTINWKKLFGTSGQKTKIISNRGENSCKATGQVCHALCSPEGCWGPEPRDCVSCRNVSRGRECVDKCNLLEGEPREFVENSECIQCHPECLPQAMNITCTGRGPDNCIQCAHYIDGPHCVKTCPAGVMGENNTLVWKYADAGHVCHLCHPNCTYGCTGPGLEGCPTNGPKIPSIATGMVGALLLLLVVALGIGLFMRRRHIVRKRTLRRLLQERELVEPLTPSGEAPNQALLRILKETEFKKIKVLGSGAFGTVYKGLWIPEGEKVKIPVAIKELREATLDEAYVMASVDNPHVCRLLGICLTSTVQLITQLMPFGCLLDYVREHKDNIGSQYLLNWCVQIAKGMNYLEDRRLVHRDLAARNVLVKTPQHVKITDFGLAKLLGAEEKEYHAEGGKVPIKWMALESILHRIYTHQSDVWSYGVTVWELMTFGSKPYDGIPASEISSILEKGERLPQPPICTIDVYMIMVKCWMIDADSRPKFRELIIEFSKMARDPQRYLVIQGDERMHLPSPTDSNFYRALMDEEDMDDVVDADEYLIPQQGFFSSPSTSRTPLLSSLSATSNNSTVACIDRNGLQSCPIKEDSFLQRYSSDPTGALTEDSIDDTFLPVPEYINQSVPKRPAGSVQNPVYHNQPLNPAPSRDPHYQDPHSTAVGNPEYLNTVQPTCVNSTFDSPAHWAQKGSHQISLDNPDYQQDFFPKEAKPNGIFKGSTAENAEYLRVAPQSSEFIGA
Sequence of HIPK4 (Q8NE63 whole entry): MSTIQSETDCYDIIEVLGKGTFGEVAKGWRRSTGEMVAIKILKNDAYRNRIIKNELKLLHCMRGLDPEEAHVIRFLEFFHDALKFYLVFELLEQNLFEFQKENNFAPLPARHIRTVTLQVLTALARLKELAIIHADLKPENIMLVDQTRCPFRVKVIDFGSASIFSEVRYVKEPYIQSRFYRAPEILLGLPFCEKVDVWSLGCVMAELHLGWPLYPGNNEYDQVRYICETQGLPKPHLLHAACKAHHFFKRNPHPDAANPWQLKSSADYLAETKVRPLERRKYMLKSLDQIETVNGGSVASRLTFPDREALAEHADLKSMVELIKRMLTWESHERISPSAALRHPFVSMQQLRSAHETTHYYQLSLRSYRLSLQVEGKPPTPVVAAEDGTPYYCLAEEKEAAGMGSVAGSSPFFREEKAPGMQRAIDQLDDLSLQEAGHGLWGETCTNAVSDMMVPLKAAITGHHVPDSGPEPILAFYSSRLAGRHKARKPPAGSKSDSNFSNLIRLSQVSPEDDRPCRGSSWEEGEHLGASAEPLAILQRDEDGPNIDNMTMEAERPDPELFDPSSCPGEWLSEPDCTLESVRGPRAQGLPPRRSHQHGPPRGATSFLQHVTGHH
Sequence of GRK2 (P25098 whole entry): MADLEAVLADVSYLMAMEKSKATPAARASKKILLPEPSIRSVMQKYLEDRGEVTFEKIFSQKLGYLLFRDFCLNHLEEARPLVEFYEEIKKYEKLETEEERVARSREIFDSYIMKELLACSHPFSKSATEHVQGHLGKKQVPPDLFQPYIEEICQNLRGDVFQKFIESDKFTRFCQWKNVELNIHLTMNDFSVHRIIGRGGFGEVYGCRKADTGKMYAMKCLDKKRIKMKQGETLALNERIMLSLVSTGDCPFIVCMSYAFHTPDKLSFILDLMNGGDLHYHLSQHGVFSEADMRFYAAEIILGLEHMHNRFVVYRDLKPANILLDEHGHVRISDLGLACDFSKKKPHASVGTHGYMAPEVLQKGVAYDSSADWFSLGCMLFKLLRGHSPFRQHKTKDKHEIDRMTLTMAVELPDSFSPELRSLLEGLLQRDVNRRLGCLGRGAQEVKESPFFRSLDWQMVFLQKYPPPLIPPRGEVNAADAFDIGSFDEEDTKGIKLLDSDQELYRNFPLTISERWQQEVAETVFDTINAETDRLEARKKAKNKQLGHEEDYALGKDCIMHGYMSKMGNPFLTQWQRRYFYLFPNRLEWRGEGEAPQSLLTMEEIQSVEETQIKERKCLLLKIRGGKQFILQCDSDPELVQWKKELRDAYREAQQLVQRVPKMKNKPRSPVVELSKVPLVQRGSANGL
Sequence of PHKG1 (Q16816 whole entry): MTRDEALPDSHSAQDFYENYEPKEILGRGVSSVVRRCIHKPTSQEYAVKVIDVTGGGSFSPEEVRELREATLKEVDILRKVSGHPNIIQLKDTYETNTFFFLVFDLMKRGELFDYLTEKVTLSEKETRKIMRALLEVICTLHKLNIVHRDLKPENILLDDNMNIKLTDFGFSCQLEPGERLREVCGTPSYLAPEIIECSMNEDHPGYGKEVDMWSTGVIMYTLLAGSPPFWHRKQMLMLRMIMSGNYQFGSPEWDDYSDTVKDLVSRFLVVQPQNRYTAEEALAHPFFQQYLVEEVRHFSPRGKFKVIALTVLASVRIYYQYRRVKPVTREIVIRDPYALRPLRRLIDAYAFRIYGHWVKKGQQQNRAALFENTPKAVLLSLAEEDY

## c1ccc2c(c1)Sc1ccccc1N2CCN1CCOCC1 [J54]
CAMK1
  remaining binding: 97%
CSNK2A1
  remaining binding: 79%
EGFR(S752-I759del)
  remaining binding: 94%
GRK2
  remaining binding: 93%
GRK7
  remaining binding: 100%
HIPK4
  remaining binding: 90%
KIT(V559D,V654A)
  remaining binding: 99%
MEK5
  remaining binding: 95%
MLK3
  remaining binding: 100%
NDR1
  remaining binding: 100%
NDR2
  remaining binding: 100%
PHKG1
  remaining binding: 100%
PHKG2
  remaining binding: 94%
PIP5K1C
  remaining binding: 100%
RET(V804M)
  remaining binding: 100%
SYK
  remaining binding: 100%
YANK2
  remaining binding: 100%
YES
  remaining binding: 100%
